In patent US20060204502A1 (priority 2004, published 2006):
pKi: −log10 of the molar value.

Columns and labels:
[1] = target: T1, rat A1 Adenosine receptor (Rattus norvegicus, UniProt P25099); experiment: Rat A1 adenosine receptor binding, [3H]-DPCPX, rat brain membranes; details: read-out: rA1 (Ki)
T1 construct: from tissue; host or cells: whole brain (minus brainstem, striatum and cerebellum) of male Wistar rats
T1 sequence (P25099 1-326): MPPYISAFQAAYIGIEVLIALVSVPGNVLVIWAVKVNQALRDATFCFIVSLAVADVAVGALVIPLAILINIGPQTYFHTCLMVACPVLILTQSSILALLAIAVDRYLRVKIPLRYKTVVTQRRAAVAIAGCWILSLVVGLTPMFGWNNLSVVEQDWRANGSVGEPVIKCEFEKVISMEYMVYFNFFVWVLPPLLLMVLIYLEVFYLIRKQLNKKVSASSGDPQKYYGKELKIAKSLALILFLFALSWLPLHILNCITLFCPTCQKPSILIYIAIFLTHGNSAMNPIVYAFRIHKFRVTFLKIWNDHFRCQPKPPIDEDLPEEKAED
Method: Membrane preparations: Male Wistar rats (200-250 g) can be decapitated and the whole brain (minug brainstem, striatum and cerebellum) dissected on ice. The brain tissues can be disrupted in a Polytron (setting 5) in 20 vols of 50 mM Tris HCl, pH 7.4. […] After 30 min incubation at 37° C., the membranes can be centrifuged and the pellets stored at −70° C. Striatal tissues can be homogenized with a Polytron in 25 vol of 50 mM Tris HCl buffer containing 10 mM MgCl2 pH 7.4. […] After 30 min incubation at 37° C., membranes can be centrifuged and the pellet stored at −70° C. […] Incubation times are typically 120 min at 25° C.
Radioligand binding assays may comprise the following: Binding of [^3H]-SCH 58261 (5-amino-7-(2-phenylethyl)-2-(2-furyl)-pyrazolo[4,3-e]-1,2,4-triazolo[1,5-c]pyrimidine) to rat striatal membranes (100 ug of protein/assay) can be performed according to methods described in Zocchi et al., 1996, J. Pharm. and Exper. […] In competition studies, at least 6-8 different concentrations of examined compounds should be used. […] Incubation time is typically 60 min at 25° C. Bound and free radioactivity can be separated by filtering the assay mixture through Whatman GF/B glass-fiber filters using a Brandel cell harvester (Gaithersburg, Md., USA). […] The filter bound radioactivity can be measured, for example, by liquid scintillation spectrometry. […]

[2] = target: T2, rat A2A Adenosine receptor (Rattus norvegicus, UniProt P30543); experiment: Rat A2A adenosine receptor binding, [3H]-SCH 58261, rat striatal membranes; details: read-out: rA2A (Ki)
T2 construct: from tissue; host or cells: rat striatum (male Wistar rats)
T2 sequence (P30543 whole entry): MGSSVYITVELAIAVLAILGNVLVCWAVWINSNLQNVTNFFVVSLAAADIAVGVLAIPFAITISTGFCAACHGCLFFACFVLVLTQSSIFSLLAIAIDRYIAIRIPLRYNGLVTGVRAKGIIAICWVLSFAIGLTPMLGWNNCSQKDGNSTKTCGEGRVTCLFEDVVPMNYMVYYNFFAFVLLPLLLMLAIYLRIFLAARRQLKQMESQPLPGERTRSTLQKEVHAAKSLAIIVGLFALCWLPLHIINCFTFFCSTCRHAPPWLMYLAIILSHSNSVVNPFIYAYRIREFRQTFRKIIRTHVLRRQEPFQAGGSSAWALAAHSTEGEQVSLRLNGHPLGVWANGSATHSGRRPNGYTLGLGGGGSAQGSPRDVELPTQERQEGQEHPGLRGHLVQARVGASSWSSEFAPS

[3] = tested on: Human Colon Carcinoma HT29; experiment: MTT growth inhibitory assay, HT29; type: cell-based; details: HT29 cells
Method: (§1) Interpretation of the EF is dependent upon the concentrations of A3 receptor antagonist tested. For example, when using very low concentrations of A3 receptor antagonist, any EF above 1.0 is synergistic if the A3 receptor antagonist concentration is below the threshold of cell growth inhibition.
(§2) The cells are sub-cultured twice a week.
(§3) Vinblastine sulfate salt was obtained from Sigma Chemical Co., (V1377). Irinotecan was diluted with culture medium. All other agents were dissolved in 100% DMSO at appropriate concentrations. The DMSO stock solutions were diluted 100-fold with growth medium so that the final DMSO concentration was 1%.

[4] = tested on: Human Pancreatic Cancer Panc-1; experiment: MTT growth inhibitory assay, Panc-1; type: cell-based; details: Panc-1 cells, A3 antagonist at 0.5 μg/ml
Method: as §1, §2, §3

[5] = tested on: Human Lung Carcinoma SKMES; experiment: MTT growth inhibitory assay, SKMES; type: cell-based; details: SKMES cells, A3 antagonist at 0.5 μg/ml
Method: as §1, §2, §3

Human Melanoma A375 = experiment: MTT growth inhibitory assay, A375; details: A375 cells
Method: An exemplary assay may comprise the following steps: Cells (1000-1500 cells/well) are seeded in a 96-well micro culture plate in a total volume of 100 μl/well. After overnight incubation in a humidified incubator at 37° C. with 5% CO2-95% air, chemotherapeutic drug solutions diluted with culture medium at various concentrations are added in the amount of 100 μl to each well. The plates are placed in a humidified incubator at 37° C. with 5% CO2-95% air for 7-10 days. The plates are then centrifuged briefly and 100 μl of the growth medium is removed. Cell cultures are incubated with 50 μl of MTT [3-(4,5-dimethylthiazol-2-yl)-2,5-diphenyl-tetrazolium bromide] reagent (1 mg/ml in Dulbecco's phosphate-buffered saline) for 4 hr at 37° C. The resultant purple formazan precipitate is solubilized with 200 μl of 0.04 N HCl in isopropanol. Absorbance is measured at a wavelength of 595 nm and at a reference wavelength of 655 nm using a Bio-Rad Model 3550 Microplate Reader. Preferably, all tests are run in duplicate for each dose level. […] The EZED50 computer program estimates the concentration of agent that inhibits cell growth by 50% as compared to the control cells. This is termed the IC50 and is determined by curve fitting test data using the following four logistic equation. [formula]
If testing concentrations are properly selected (i.e., no or little growth inhibition at low concentrations and complete inhibition at high concentrations), EZED50 program fits the data extremely well and estimates the IC50 value accurately. […] In these instances, the data could be re-analyzed by fixing the Amax value.
In this case, the IC50 could be estimated more accurately if both the Amax and Amin values are fixed. Although it may be feasible to estimate IC50 value by fixing Amax and/or Amax and Amin without repeating the experiment, the best way to determine the IC50 accurately is to decrease or increase the concentrations of the test agent and repeat the test.
Inhibitory assay testing is also used to determine enhanced therapeutic effects from combining A3 receptor antagonists with other tumor inhibiting agents. The inhibitory cell growth assays are run with and without selected concentrations of A3 receptor antagonists. An enhanced therapeutic effect is present when the IC50 of the tumor inhibiting agent is lower with the A3 receptor antagonist.
Quantitatively, the enhancement factor (EF) is calculated by dividing the IC50 value of the tumor inhibiting agent for a tumor cell line by the IC50 value of the agent with A3 receptor antagonist for the same cell line: [formula]
The cells are cultured in a T25 Falcon Tissue Culture flask in a humidified incubator at 37° C. with 5% CO2-95% air. The cells are sub-cultured twice a week.

[6] = enhancement of paclitaxel IC50, A3 antagonist at 0.5 μg/ml

`CN(C)c1ccc(NC(=O)Nc2nc3nn(C)cc3c3nc(-c4ccco4)nn23)cc1` [IL-11, N-1-(4-dimethylamino-phenyl)-N′-5-[8-methyl-2-(2-furyl)-pyrazolo[4,3-e]1,2,4-triazolo[1,5-c]pyrimidine]-urea] was tested, and the pKi [1] was under 5.00, the pKi [2] was under 5.00 and the “Enhancement Factor” value ([3]; enhancement of docetaxel IC50, A3 antagonist at 0.05 μg/ml) was 6.4. For the same compound, the “Enhancement Factor” value ([3]; enhancement of doxorubicin IC50, A3 antagonist at 0.5 μg/ml) was 1.2, the “Enhancement Factor” value ([3]; enhancement of irinotecan IC50, A3 antagonist at 0.5 μg/ml) was 1.1 and the “Enhancement Factor” value [3, 6] was 2.5. For the same compound, the “Enhancement Factor” value ([4]; enhancement of docetaxel IC50) was 1.4, the “Enhancement Factor” value ([4]; enhancement of paclitaxel IC50) was 1.8 and the “Enhancement Factor” value ([5]; enhancement of docetaxel IC50) was 1.9. For the same compound, the “Enhancement Factor” value ([5]; enhancement of irinotecan HCL IC50) was 1.9, the “Enhancement Factor” value ([5]; enhancement of paclitaxel IC50) was 4.2 and the “Enhancement Factor” value ([5]; enhancement of vinblastine IC50) was 1.6. For the same compound, the “Enhancement Factor” value (Human Melanoma A375; enhancement of docetaxel IC50, A3 antagonist at 0.5 μg/ml) was 5.3, the “Enhancement Factor” value (Human Melanoma A375; enhancement of docetaxel IC50, A3 antagonist at 5 μg/ml) was 6.5 and the “Enhancement Factor” value (Human Melanoma A375; [6]) was 3.1. For the same compound, the “Enhancement Factor” value (Human Melanoma A375; enhancement of paclitaxel IC50, A3 antagonist at 5 μg/ml) was 9.6.
